Patent US20090149496A1, “INHIBITORS OF THE TASK-1 AND TASK-3 ION CHANNEL” (SANOFI-AVENTIS DEUTSCHLAND GMBH, priority 2006, published 2009)

Legend:
TASK1 (mouse) = biological target: T1, TASK1 (mouse) (Mus musculus, UniProt O35111); test: Activity on the TASK-1 channel in Xenopus oocytes (two-microelectrode voltage clamp), mouse channel; type: cell-based; settings: mouse TASK-1 expressed in Xenopus oocytes, voltage jumps to 40 mV, pH 7.4, room temperature; read-out: IC50 (μmol) TASK1 (mouse)
T1 construct: expressed in transfected cells; host or cells: Xenopus laevis oocytes injected with in vitro synthesized RNA
Experimental: (§1) A) Determination of the Activity on the TASK-1 Channel in Xenopus Oocytes
(§2) Mouse or human TASK-1 channels were expressed in Xenopus oocytes. For this purpose, oocytes were first isolated from Xenopus levis and defolliculated. Subsequently, TASK-1-encoding RNA synthesized in vitro was injected into these oocytes. After two days of TASK-1 protein expression, TASK-1 currents were measured on the oocytes with the two-microelectrode voltage clamp technique. In this measurement, the TASK-1 channels were generally activated with voltage jumps lasting 250 ms to 40 mV. The bath was flushed with a solution of the following composition: NaCl 96 mM, KCl 2 mM, CaCl2 1.8 mM, MgCl2 1 mM, HEPES 5 mM (titrated to pH 7.4 with NaOH). These experiments were performed at room temperature. For data acquisition and analysis, the following were used: Geneclamp amplifier (Axon Instruments, Foster City, USA) and MacLab D/A converter and software (ADinstruments, Castle Hill, Australia). The inventive substances were tested by adding them to the bath solution in different concentrations. The effects of the substances were calculated as the percentage inhibition of the TASK-1 control current which was obtained when no substance was added to the solution. The data was subsequently fitted to the Hill equation in order to determine the half-maximum inhibitory concentrations (IC50 values) for the particular substances.

human TASK-3 channel = biological target: T2, human TASK-3 channel (Homo sapiens, UniProt Q9NPC2); test: Activity on the TASK-3 channel by patch-clamp on CHO cells; type: cell-based; settings: whole cell, CHO cells expressing human TASK-3, read-out: IC50 (μmol/l) TASK3 (human)
T2 construct: expressed in transfected cells; host or cells: CHO DHFR-minus cells, clone CHO-244-8-1
Experimental: C) Determination of the Activity on the TASK-3 Channel by Patch-Clamp Investigations
With the aid of the patch-clamp technique, the inhibition of the human TASK-3 current by the example compounds was measured on CHO cells in which the human TASK-3 channel is expressed. To produce the TASK-3 cell line, the human TASK-3 cDNA (Genbank, Accession Number AF248241) was cloned into the eukaryotic expression vector p658, which bears a DHFR (dihydrofolate reductase) resistance gene [reference: Gene 1994 (149), 341-344, 1994]. CHO (Chinese hamster ovary) DHFR-minus cells were transfected with the TASK-3 expression construct using the Fugene reagent (Roche Biochemicals) according to the manufacturer's instructions. […] Resulting cell clones were analyzed for the expression of TASK-3 with the aid of a fluorescence-based activity assay in a FlexStation (Molecular Devices) and with a membrane potention-sensitive dye (Molecular Devices FMP Dye Kit). […] TASK-3-positive cell clones were subsequently analyzed for resulting potassium currents with the patch-clamp technique. […]
To investigate the substances, the cells were introduced into a measurement chamber which is mounted on an inverted microscope. […] The concentration of the half-maximum inhibition of the current (IC50 value) was determined by fitting the curve to the mathematical Hill equation.
In this analysis, the following IC50 values were determined: […]

respiration in rabbits = test: Action on respiration in rabbits (propofol-induced apnea); type: in vivo; settings: rabbit, 10 mg/kg i.v., propofol 10 mg/kg/min, n = 13
Experimental: D) Investigation of the Action on Respiration in Rabbits
An apnea was induced in the rabbit by infusion of the narcotic propofol, 10 mg/kg/min. The vehicle used for the compound of example 1 (R-enantiomer) was DMSO/PEG (0.2 ml/1.8 ml). The time from the start of propofol infusion up to the apnea was recorded.

genioglossus muscle = test: Electromyographic activity of the genioglossus muscle in narcotized rats; type: in vivo, rat
Experimental: (§3) E) Investigation of the Effect on the Electromyographic Activity of the Genioglossus Muscle and the Respiratory Minute Volume in Rats
(§4) The compound of example 1 (R-enantiomer) and of example 2 was investigated for electromyographic activity of the genioglossus muscle and for respiration-stimulating effect on male urethane-chloralose-narcotized, vagotomized rats with a weight of from 250 to 300 g. For this purpose, the genioglossus EMG activity was measured by means of EMG electrodes. The respiration-stimulating effect was investigated by measuring the respiratory minute volume by means of a tracheal cannula. For the investigations, the rats were administered intravenously successively with 1, 3 and 10 mg/kg of the compound of example 1 (R-enantiomer) and of example 2, with glycofurol (50%) as the vehicle, at 15 minute intervals. CO2 was used as the positive control for the stimulation of the genioglossus activity and of the respiratory minute volume.

respiration = test: Respiratory minute volume in narcotized rats; type: in vivo, rat
Experimental: as §3, §4

rats = test: Compatibility in rats; type: in vivo, rat; settings: oral administration of 1000 mg/kg
Source text: F) Investigation of Compatibility in Rats

TASK1 (human) [1] = biological target: T3, TASK1 (human) (Homo sapiens, UniProt O14649); test: Activity on the TASK-1 channel with the FLIPR technique on CHO cells; type: cell-based; parameters: expressed in transfected cells; host or cells: CHO cells; settings: inhibition of human TASK-1 current, 10 μmol/l
Source text: B) Determination of the Activity on the TASK-1 Channel with the FLIPR Technique

TASK1 (human) [2] = biological target: T3, TASK1 (human); test: Activity on the TASK-1 channel in Xenopus oocytes (two-microelectrode voltage clamp), human channel; type: cell-based; parameters: expressed in transfected cells; host or cells: Xenopus laevis oocytes injected with in vitro synthesized RNA; settings: human TASK-1 expressed in Xenopus oocytes, voltage jumps to 40 mV, pH 7.4, room temperature; read-out: IC50 (μmol) TASK1 (human)
Experimental: as §1, §2

T3 sequence (O14649 whole entry): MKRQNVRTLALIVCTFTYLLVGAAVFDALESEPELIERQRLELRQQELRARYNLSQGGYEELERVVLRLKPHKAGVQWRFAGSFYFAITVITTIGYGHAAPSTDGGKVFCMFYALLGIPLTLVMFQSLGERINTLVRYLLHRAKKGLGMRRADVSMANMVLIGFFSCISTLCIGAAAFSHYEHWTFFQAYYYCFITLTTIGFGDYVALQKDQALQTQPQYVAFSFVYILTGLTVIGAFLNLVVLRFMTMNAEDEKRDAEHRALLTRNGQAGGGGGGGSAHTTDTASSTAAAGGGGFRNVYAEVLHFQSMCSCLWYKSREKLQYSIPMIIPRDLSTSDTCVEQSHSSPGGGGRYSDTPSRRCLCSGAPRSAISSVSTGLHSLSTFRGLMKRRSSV
T2 sequence (Q9NPC2 whole entry): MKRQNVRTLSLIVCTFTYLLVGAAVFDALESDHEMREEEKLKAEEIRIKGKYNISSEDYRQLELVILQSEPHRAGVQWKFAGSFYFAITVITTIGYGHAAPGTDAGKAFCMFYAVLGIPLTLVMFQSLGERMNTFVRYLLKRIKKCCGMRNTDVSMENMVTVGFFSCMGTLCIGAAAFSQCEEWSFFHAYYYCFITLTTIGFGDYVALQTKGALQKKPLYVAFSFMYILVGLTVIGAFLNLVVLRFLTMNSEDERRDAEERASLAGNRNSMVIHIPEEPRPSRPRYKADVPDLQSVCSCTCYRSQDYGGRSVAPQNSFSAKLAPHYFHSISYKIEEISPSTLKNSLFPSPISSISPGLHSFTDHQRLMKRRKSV
T1 sequence (O35111 whole entry): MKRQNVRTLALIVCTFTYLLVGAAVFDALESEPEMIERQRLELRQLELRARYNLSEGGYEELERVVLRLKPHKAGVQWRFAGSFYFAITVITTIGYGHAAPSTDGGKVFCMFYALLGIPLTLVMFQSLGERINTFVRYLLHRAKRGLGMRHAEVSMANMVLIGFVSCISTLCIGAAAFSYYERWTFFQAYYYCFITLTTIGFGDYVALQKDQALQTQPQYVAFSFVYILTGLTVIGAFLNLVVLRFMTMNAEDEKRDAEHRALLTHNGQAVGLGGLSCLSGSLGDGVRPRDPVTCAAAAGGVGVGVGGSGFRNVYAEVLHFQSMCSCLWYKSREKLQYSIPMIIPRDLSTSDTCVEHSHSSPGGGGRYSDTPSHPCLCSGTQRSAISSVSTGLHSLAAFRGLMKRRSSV

CCCCS(=O)(=O)Nc1ccccc1C(=O)N[C@H](CC)c1ccc(OC)nc1 [Example 1 (R-enantiomer), 2-(Butyl-1-sulfonylamino)-N-[1(R)-(6-methoxypyridin-3-yl)propyl]benzamide]
IC50 (TASK1 (mouse)): 150 nM | IC50 (human TASK-3 channel): 1 µmol/L | Time from the start of propofol infusion up to the apnea (mean) (respiration in rabbits): 5.63 min | EMG activity of the genioglossus muscle (mean) (genioglossus muscle; 1 mg/kg intravenously): 4.45 arbitrary units | EMG activity of the genioglossus muscle (mean) (genioglossus muscle; 3 mg/kg intravenously): 5.59 arbitrary units | EMG activity of the genioglossus muscle (mean) (genioglossus muscle; 10 mg/kg intravenously): 7.18 arbitrary units | Effect on the electromyographic activity of the genioglossus muscle (in words) (genioglossus muscle; summary of tables 2 and 4): stimulate | Respiratory minute volume (mean) (respiration; 1 mg/kg intravenously): 246 mL/min | Respiratory minute volume (mean) (respiration; 3 mg/kg intravenously): 317 mL/min | Respiratory minute volume (mean) (respiration; 10 mg/kg intravenously): 375 mL/min | Effect on the respiratory minute volume (in words) (respiration; summary of tables 3 and 5): stimulate | Side-effects (rats): no side-effects were observed | melting point: 97 °C | inhibition at 10 µM (TASK1 (human) [1]): 81% | IC50 (TASK1 (human) [2]): 100 nM
